We go through 6 compounds from publication PMC8068801, “Novel Benzenesulfonate Scaffolds with a High Anticancer Activity and G2/M Cell Cycle Arrest” (Cancers, 2021).

What is called IC50 is the point on the concentration scale where inhibition reaches its midpoint.

The target of one test is T1, BTK (Homo sapiens, UniProt Q06187).
T1 construct: purchased Promega
Description: Tyrosine kinase assay (Kinase Selectivity TK-2, ADP-Glo). Type of test: biochemical. To be noted: read-out: Inhibitory Effect of the Tyrosine Kinase Activity, BTK. Here is the method: (§1) Assays using the Kinase Selectivity TK-2 profiling systems and ADP-Glo Kinase Assay (both from Promega) were performed to determine the inhibition of the non-receptor tyrosine kinases. The protocol was previously designed and described by our group in reports. The experiments were performed at least four times. The data are expressed as the percentage of the inhibition activity of tyrosine kinase after treatment with the tested derivatives.
Background: In ADP-Glo the light output rises with the ADP produced.

For a further test, the target named is T2, Fyn A (Homo sapiens, UniProt P06241).
T2 construct: purchased Promega
Described as above. Type of test: biochemical. The note with it: read-out: Inhibitory Effect of the Tyrosine Kinase Activity, Fyn A. Here is the method: as §1

A further test addresses T3, Src (Homo sapiens, UniProt P12931).
T3 construct: purchased Promega
The description is as above. Type of test: biochemical. The note with it: read-out: Inhibitory Effect of the Tyrosine Kinase Activity, Src. Here is the method: as §1

In a further test the target is T4, Lyn B (Homo sapiens, UniProt P07948).
T4 construct: purchased Promega
The test is described as above. Type of test: biochemical. To be noted: read-out: Inhibitory Effect of the Tyrosine Kinase Activity, Lyn B. Here is the method: as §1

The next test addresses T5, CSK (Homo sapiens, UniProt P41240).
T5 construct: purchased Promega
The description is as above. The note with it: read-out: Inhibitory Effect of the Tyrosine Kinase Activity, CSK. Type of test: biochemical. Here is the method:
as §1

The target in another test is T6, BRK (Homo sapiens, UniProt Q13882).
T6 construct: purchased Promega
Described as above. Type of test: biochemical. To be noted: read-out: Inhibitory Effect of the Tyrosine Kinase Activity, BRK. The method, then:
as §1

A further test concerns the target T7, ABL1 (Homo sapiens, UniProt P00519).
T7 construct: purchased Promega
Described as above. Type of test: biochemical. To be noted: read-out: Inhibitory Effect of the Tyrosine Kinase Activity, ABL1. The method, then:
as §1

The target of a further test is T8, Lck (Homo sapiens, UniProt P06239).
T8 construct: purchased Promega
The description is as above. Type of test: biochemical. To be noted: read-out: Inhibitory Effect of the Tyrosine Kinase Activity, Lck. The method, then:
as §1

A further test deals with NHDF cells. Description: MTS cytotoxicity assay, normal fibroblasts NHDF. The note with it: NHDF normal human fibroblasts, 72 h incubation. Type of test: cell-based. The text has this:
(§2) M. Rusin from the Maria Sklodowska-Curie Memorial Cancer Centre and Institute of Oncology in Gliwice, Poland. […] G. Kramer-Marek from the Institute of Cancer Research in London, United Kingdom. The human suspension chronic myelogenous leukemia cell line K562 and pancreas ductal adenocarcinoma cell line PANC-1 were purchased from Sigma-Aldrich (St. Louis, MO, USA), while the normal human dermal fibroblasts cell line NHDF were purchased from PromoCell. […] Each medium contained a combination of two antibiotics: penicillin and streptomycin (1% v/v; Gibco). All of these cell lines were grown under standard conditions at 37 °C with a 5% CO2 humidified atmosphere. Moreover, all of the cell lines were routinely tested for mycoplasma using the PCR technique with specific Mycoplasma primers to confirm that there was no contamination.
(§3) The assay was performed following a 72 h incubation with the various concentrations of the tested compounds. Then, 100 µL DMEM without phenol red with 20 µL of the CellTiter 96®AQueous One Solution-MTS (Promega, Promega, WI, USA) was added to each well and incubated for 1 h or 3 h (PANC-1) at 37 °C. The optical densities of the samples were measured at 490 nm using a multi-plate reader (Synergy 4, BioTek, Winooski, VT, USA). […] Each individual compound was tested in triplicate in a single experiment with each experiment being performed three or four times.

The test system of the next test is K562 cells. Description: MTS cytotoxicity assay, K562. Type of test: cell-based, human. The note with it: for IC50: Homo sapiens, K562, 72 h incubation, MTS; for Selectivity index, K562: normal fibroblasts NHDF vs K562.
Excerpt: as §2, §3

The next test deals with HCT 116 p53^−/− cells. Description: MTS cytotoxicity assay, HCT 116 p53-/-. Type of test: cell-based, human. The note with it: for IC50: Homo sapiens, HCT 116 p53^−/−, 72 h incubation, MTS; for Selectivity index, HCT 116 p53 −/−: NHDF vs HCT 116 p53 −/−.
Excerpt: as §2, §3

The test system of another test is MCF-7 cells. Description: MTS cytotoxicity assay, MCF-7. Type of test: cell-based, human. To be noted: for IC50: Homo sapiens, MCF7, MCF-7, 72 h incubation, MTS; for Selectivity index, MCF-7: NHDF vs MCF-7.
Excerpt: as §2, §3
A general note: Formazan colour is commonly taken as a measure of viable cells.

In another test the test system is PANC-1 cells. Description: MTS cytotoxicity assay, PANC-1. Type of test: cell-based, human. To be noted: for IC50: Homo sapiens, PANC-1, 72 h incubation, MTS.
Excerpt: as §2, §3

Test [1] concerns U-251 cells. Description: MTS cytotoxicity assay, U-251. Type of test: cell-based, human. The note with it: for IC50: Homo sapiens, U-251, 72 h incubation, MTS.
Excerpt: as §2, §3

The subject of test [2] is A549 cells. Description: MTS cytotoxicity assay, A549. Type of test: cell-based, human. The note with it: for IC50: A549, 72 h incubation, MTS; for Selectivity index, A549: NHDF vs A549.
Excerpt: as §2, §3

Another test concerns HCT 116 p53^+/+ cells. Description: MTS cytotoxicity assay, HCT 116 p53+/+. Type of test: cell-based, human. The note with it: for IC50: Homo sapiens, HCT 116 p53^+/+, 72 h incubation, MTS.
Excerpt: as §2, §3

Test [3] deals with A549 cells. The arrangement: method as in PMID 24530495. To be noted: cited from earlier work.
For test [4], the system named is U-251 cells. Description: Cell cycle assay (Muse Cell-Cycle Kit), U-251. Type of test: cell-based, human. The note with it: U-251, 0.13 µM to 2 µM, 24 h; 32.3% in untreated cells. Here is the method: The K562, U-251 and NHDF cells were seeded in 3 cm Petri dishes (Nunc) at a density of 250,000 cells per well and incubated under standard conditions at 37 °C for 24 h. […] After a 24 h treatment, the assays were performed using a Muse Cell-Cycle Kit (Millipore, Burlington, MA, USA) according to the supplier’s instructions. Briefly, the cells were collected, washed with cold PBS and centrifuged at 300 g for 5 min. Afterwards, the cells were fixed in ice cold 70% ethanol and stored at −20 °C overnight. The next day, the cells were washed with cold PBS, centrifuged and resuspended in 200 μL of the Muse™ Cell Cycle Reagent. The samples were incubated for 30 min at room temperature in the dark. After staining, the cellular subpopulation values in the individual cell cycle phases were estimated using a cell cycle analysis using a Muse Cell Analyzer (Millipore). The experiments were performed at least four times.

Read-outs that look alike come from different tables or passages of the source. Some results are limits rather than exact numbers.

T7 sequence (P00519 whole entry): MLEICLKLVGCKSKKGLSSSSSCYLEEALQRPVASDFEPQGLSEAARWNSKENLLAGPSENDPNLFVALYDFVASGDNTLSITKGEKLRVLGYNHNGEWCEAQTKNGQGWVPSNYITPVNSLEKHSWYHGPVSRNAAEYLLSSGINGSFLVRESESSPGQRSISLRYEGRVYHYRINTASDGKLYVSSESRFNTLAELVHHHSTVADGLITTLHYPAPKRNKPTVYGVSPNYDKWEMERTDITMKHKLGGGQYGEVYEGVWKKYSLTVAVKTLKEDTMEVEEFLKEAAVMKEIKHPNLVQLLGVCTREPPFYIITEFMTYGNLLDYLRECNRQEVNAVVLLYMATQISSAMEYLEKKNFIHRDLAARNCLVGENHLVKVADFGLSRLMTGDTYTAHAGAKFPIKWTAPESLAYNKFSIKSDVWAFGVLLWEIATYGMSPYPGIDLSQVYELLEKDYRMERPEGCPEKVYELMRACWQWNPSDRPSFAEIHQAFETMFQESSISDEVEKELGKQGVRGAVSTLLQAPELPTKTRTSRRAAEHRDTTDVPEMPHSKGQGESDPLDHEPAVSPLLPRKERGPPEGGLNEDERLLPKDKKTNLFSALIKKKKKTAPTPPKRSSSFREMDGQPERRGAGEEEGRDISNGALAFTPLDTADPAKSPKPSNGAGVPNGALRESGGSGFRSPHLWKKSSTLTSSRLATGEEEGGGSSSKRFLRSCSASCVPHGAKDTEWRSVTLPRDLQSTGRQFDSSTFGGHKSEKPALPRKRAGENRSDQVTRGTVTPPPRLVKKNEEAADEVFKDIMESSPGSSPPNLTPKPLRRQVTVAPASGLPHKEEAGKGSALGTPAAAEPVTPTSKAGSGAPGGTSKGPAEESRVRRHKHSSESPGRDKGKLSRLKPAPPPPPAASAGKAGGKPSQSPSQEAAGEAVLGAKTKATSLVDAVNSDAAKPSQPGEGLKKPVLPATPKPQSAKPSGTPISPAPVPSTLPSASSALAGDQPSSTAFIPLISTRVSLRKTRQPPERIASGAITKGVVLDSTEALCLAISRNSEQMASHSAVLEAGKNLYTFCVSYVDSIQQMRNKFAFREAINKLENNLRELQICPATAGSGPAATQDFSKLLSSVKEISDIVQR
T1 sequence (Q06187 whole entry): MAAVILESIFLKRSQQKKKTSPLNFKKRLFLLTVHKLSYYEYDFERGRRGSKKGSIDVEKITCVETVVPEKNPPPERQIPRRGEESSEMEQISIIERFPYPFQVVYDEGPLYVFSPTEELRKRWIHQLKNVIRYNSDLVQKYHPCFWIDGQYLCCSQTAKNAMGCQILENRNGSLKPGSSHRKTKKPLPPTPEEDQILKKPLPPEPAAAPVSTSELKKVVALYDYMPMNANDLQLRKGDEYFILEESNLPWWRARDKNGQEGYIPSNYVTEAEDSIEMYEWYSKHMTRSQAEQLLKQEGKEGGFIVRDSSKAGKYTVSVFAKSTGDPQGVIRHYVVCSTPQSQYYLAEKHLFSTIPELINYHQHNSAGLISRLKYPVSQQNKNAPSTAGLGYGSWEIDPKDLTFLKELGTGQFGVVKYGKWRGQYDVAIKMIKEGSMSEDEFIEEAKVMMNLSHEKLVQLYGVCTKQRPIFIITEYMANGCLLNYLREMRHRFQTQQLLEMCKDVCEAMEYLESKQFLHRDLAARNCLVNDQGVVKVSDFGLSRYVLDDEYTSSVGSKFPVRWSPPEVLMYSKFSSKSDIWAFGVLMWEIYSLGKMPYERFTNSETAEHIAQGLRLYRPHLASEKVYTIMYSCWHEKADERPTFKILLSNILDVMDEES
T3 sequence (P12931 whole entry): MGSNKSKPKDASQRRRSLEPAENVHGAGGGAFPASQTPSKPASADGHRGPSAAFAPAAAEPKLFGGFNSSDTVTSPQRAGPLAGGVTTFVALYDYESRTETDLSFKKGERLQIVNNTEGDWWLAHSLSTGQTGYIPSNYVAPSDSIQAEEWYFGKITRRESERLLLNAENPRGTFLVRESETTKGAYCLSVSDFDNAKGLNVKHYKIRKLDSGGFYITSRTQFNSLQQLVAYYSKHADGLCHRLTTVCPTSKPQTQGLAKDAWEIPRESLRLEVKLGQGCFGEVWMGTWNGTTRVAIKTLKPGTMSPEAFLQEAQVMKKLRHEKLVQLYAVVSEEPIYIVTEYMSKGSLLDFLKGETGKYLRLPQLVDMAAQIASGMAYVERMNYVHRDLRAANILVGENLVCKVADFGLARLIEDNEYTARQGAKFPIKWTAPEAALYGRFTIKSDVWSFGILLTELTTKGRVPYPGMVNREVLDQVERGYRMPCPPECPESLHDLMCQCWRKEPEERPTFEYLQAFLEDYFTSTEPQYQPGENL
T2 sequence (P06241 whole entry): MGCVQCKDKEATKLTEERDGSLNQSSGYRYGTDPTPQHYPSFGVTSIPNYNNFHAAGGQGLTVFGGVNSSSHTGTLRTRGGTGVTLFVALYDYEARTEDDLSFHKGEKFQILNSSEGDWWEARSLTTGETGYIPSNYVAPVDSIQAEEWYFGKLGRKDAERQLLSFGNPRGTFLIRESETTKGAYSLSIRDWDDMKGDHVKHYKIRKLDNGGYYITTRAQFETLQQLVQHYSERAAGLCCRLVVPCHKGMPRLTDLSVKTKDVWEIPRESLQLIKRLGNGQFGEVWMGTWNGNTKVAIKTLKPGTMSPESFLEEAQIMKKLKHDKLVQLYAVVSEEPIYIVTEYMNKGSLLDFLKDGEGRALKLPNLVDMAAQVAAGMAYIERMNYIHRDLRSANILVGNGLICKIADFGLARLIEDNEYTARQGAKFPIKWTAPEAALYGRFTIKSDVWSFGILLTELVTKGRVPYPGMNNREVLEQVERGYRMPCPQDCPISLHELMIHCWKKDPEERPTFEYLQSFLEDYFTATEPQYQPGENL
T6 sequence (Q13882 whole entry): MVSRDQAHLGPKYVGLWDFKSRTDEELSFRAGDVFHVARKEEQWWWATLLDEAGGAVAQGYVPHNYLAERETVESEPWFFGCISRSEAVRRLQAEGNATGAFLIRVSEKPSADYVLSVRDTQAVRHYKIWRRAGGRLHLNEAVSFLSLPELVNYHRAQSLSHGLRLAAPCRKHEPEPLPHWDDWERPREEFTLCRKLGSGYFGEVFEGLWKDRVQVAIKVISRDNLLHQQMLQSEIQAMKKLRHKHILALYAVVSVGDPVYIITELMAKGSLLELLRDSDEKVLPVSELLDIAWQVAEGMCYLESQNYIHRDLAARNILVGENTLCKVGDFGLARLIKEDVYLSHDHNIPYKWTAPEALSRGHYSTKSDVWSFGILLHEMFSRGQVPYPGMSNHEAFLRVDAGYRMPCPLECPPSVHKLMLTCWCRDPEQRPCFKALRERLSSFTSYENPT
T8 sequence (P06239 whole entry): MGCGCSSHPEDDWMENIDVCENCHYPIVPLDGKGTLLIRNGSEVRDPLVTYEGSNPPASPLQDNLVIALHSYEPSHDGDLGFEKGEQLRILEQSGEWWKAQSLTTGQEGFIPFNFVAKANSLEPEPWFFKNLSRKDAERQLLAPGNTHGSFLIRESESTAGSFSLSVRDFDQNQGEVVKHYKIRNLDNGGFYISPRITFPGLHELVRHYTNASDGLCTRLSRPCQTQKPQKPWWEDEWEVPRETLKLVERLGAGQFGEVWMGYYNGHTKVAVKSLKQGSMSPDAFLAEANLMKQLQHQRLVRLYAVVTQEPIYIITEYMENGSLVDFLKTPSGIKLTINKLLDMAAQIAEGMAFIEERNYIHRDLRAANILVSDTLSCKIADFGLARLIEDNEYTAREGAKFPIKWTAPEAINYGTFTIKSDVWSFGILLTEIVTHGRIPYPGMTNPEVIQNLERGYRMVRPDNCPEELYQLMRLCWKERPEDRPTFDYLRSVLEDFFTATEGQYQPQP
T4 sequence (P07948 1-491 isoform P07948-2): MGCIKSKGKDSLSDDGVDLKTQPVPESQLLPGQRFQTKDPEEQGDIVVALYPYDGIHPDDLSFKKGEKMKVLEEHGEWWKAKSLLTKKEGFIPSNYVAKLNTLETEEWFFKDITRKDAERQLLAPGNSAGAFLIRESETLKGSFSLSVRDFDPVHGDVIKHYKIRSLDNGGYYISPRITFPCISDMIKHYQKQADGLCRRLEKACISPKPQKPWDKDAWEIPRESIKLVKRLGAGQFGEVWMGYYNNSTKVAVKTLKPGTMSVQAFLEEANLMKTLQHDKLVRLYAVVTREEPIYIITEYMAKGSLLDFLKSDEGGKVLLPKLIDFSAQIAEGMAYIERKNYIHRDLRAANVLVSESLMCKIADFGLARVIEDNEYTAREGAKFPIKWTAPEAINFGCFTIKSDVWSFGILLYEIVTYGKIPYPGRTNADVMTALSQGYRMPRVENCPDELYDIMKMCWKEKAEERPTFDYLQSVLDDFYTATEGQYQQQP
T5 sequence (P41240 whole entry): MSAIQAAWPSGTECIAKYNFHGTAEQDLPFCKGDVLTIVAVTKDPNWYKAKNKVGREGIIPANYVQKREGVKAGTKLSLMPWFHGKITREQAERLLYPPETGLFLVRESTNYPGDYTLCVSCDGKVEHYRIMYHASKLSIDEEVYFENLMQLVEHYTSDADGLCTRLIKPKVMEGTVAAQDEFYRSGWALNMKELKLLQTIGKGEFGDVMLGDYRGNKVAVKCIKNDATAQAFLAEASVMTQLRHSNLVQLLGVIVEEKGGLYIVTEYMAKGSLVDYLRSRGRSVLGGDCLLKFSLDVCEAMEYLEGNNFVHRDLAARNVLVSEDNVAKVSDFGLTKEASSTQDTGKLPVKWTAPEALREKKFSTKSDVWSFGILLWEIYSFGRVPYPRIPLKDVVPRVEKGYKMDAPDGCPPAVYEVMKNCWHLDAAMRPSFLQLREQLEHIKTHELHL

For `COc1ccccc1/C=C/c1nc(OS(=O)(=O)c2ccc(C)cc2)c2ccc(Cl)cc2n1` [BS3, 7-chloro-2-((E)-2-(2-methoxyphenyl)ethenyl)quinazolin-4-yl 4-methylbenzenesulfonate], the inhibition at 0.5 µM at BTK is 30.7%; on Fyn A it was 34.1%; at Src, 2.73%; at Lyn B, 0%; at CSK, 0%; at BRK, 26.5%. Besides, the inhibition at 0.5 µM on ABL1 was 0%; at Lck it was 42.6%. Moreover, the IC50 was 9.42 ± 1.65 µM with NHDF cells; 0.078 ± 0.027 µM in the test on K562 cells; 0.239 ± 0.03 µM with HCT 116 p53^−/− cells; 4.6 ± 1.02 µM in the test with MCF-7 cells; 0.097 ± 0.03 µM with PANC-1 cells; 1.76 ± 0.388 µM with U-251 cells [1]. Besides, the IC50 in the test with A549 cells [2] was determined as 7.65 ± 0.987 µM; in the test on A549 cells [2] (Homo sapiens, A549, 72 h) it was 7.65 µM; with HCT 116 p53^+/+ cells, 0.363 ± 0.028 µM. Further, the “Selectivity index, K562” value in the test on K562 cells is listed as 120.71. Moreover, the “Selectivity index, HCT 116 p53 −/−” value with HCT 116 p53^−/− cells worked out at 39.39. In addition, the “Selectivity index, MCF-7” value in the test on MCF-7 cells was 2.05. Moreover, the “Selectivity index, PANC-1” value with PANC-1 cells (NHDF vs PANC-1) was found to be 97.06. Besides, in the test with U-251 cells [1] (NHDF vs U-251), the “Selectivity index, U-251” value amounted to 5.36. Also, the “Selectivity index, A549” value in the test with A549 cells [2] amounted to 1.23. For the same compound, the “Selectivity index, HCT 116 p53+/+” value with HCT 116 p53^+/+ cells (NHDF vs HCT 116 p53+/+) is 25.94.
Take `COc1ccc(/C=C/c2nc(OS(=O)(=O)c3ccc(C)cc3)c3ccccc3n2)cc1` [BS5, 2-((E)-2-(4-methoxyphenyl)ethenyl)quinazolin-4-yl 4-methylbenzenesulfonate]: the inhibition at 0.5 µM was determined as 8.59% at BTK; 0% at Fyn A; 0% at Src; 0% on Lyn B; 20.1% at CSK; 20.2% on BRK. The inhibition at 0.5 µM on ABL1 was found to be 0%; on Lck it was 11.2%. Besides, the IC50 in the test on NHDF cells was above 25 µM; with K562 cells it was 10.2 ± 0.819 µM; with HCT 116 p53^−/− cells, above 25 µM; in the test on MCF-7 cells, above 25 µM; in the test on PANC-1 cells, above 25 µM; with U-251 cells [1], above 25 µM. The IC50 in the test with A549 cells [2] (Homo sapiens, A549, 72 h) was above 25 µM; with HCT 116 p53^+/+ cells, above 25 µM. Moreover, the “Selectivity index, K562” value with K562 cells is on record as 2.45. The “Selectivity index, A549” value in the test on A549 cells [2] worked out at 1.00.
For `COc1ccc(/C=C/c2nc(OS(=O)(=O)c3ccc(C)cc3)c3ccccc3n2)c(OC)c1` [BS6, 2-((E)-2-(2,4-dimethoxyphenyl)ethenyl)quinazolin-4-yl 4-methylbenzenesulfonate], the inhibition at 0.5 µM came out at 17.9% on BTK; 62.6% on Fyn A; 0% at Src; 0% on Lyn B; 21.1% at CSK; 0% at BRK. For the same compound, the figures for the inhibition at 0.5 µM on ABL1 and at Lck were 0% and 37.3%, respectively. Also, the IC50 in the test with NHDF cells is above 25 µM; in the test with K562 cells, 2.7 ± 0.519 µM; in the test on HCT 116 p53^−/− cells, 21.7 ± 1.19 µM; in the test with MCF-7 cells, 9.79 ± 1.23 µM; in the test with PANC-1 cells, above 25 µM; with U-251 cells [1] it was above 25 µM. Moreover, the IC50 is above 25 µM in the test with A549 cells [2] (Homo sapiens, A549, 72 h) and above 25 µM with HCT 116 p53^+/+ cells. Further, the “Selectivity index, K562” value in the test with K562 cells was 9.26. Moreover, in the test with HCT 116 p53^−/− cells, the “Selectivity index, HCT 116 p53 −/−” value was 1.15. In addition, the “Selectivity index, MCF-7” value with MCF-7 cells is recorded as 2.55. Also, the “Selectivity index, A549” value with A549 cells [2] turned out to be 1.00.
Consider `COc1ccc(/C=C/c2nc(NCCCN(C)C)c3ccccc3n2)cc1` [CP-31398, reference compound], for which the IC50 in the test on NHDF cells was 12.3 ± 0.54 µM; with K562 cells it was 3.09 ± 0.36 µM; with HCT 116 p53^−/− cells it was 26.3 ± 1.41 µM; in the test on MCF-7 cells it was 27 ± 2.1 µM; in the test with PANC-1 cells it was above 25 µM; in the test with U-251 cells [1] it was 18.8 ± 1.65 µM. Also, the IC50 was above 25 µM in the test on A549 cells [2] (Homo sapiens) and 18.6 ± 0.92 µM in the test on HCT 116 p53^+/+ cells.
As to `COc1c(NS(=O)(=O)c2ccc(C)cc2)cc(-c2ccc3ncnc(N4CCOCC4)c3c2)cc1C(N)=O` [IV], in the test on A549 cells [3], the IC50 is 2.18 µM.
On to `CC(=O)O[C@H]1C(=O)[C@@]2(C)[C@H]([C@H](OC(=O)c3ccccc3)[C@]3(O)C[C@H](OC(=O)[C@H](O)[C@@H](NC(=O)c4ccccc4)c4ccccc4)C(C)=C1C3(C)C)[C@]1(OC(C)=O)CO[C@@H]1C[C@@H]2O` [paclitaxel, reference compound], for which the “Fraction of cells in the G2/M phase” value in the test with U-251 cells [4] is “about 69.9%”.
